The source made the active and inactive calls.
Assays:
[1] = biological target: Alkaline phosphatase, placental type (Homo sapiens, UniProt P05187); assay: PLAP enzyme inhibitors, confirmation, biochemical, luminescence (AID 1512); assay type: functional
[2] = biological target: T1, X-box-binding protein 1 (Homo sapiens, UniProt P17861); assay type: functional, Cricetulus griseus;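 also: confirmatory dose-response counter-screen serving a CHOP assay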
T1 sequence (P17861 whole entry): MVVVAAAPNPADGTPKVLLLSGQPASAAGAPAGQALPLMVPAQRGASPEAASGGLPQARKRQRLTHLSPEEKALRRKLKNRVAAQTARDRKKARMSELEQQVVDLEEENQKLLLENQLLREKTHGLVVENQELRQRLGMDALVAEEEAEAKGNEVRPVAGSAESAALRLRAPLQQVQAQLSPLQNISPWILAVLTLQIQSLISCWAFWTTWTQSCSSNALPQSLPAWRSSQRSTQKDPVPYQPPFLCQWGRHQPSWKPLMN

[3] = biological target: T2, Alkaline phosphatase, tissue-nonspecific isozyme (Homo sapiens, UniProt P05186); assay: human TNAP enzyme inhibitors, SAR follow-up, biochemical, luminescent, dose response (AID 1056)
T2 sequence (P05186 whole entry): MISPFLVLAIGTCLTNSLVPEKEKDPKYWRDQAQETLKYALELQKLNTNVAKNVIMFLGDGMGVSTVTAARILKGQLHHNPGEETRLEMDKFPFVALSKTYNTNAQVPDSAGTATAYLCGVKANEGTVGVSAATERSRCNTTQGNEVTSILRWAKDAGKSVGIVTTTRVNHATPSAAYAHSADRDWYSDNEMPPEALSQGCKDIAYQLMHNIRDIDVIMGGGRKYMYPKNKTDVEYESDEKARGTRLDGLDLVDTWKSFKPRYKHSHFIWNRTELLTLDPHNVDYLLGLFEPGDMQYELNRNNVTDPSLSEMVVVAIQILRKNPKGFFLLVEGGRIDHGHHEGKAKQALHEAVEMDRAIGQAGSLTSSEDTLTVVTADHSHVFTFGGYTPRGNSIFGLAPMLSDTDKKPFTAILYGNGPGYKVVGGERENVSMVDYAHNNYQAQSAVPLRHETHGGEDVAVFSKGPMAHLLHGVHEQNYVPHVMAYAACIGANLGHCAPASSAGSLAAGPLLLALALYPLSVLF

[4] = tested on: Streptococcus; assay: Group A Streptococcus viability loss, dose response, counter-screen for streptokinase expression inhibitor project, luminescence, BacTiterGlo (AID 1915); assay type: functional, organism-based;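 also: potency for reduction of bacterial viability or growth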
[5] = tested on: HEK293; assay: cells; assay type: functional, cell-based; conditions: Homo sapiens
[6] = tested on: HEK293; assay: NOD1 signaling inhibitors, primary screen, cell-based, luminescence, uHTS (AID 1578); assay type: functional; conditions: Homo sapiens
[7] = biological target: Nucleotide-binding oligomerization domain-containing protein 2 (Homo sapiens, UniProt Q9HC29); assay: NOD2 signaling inhibitors, cell-based, luminescence, uHTS, HEK293 (AID 1566); assay type: functional
[8] = tested on: HEK293; assay: NOD2 signaling inhibitors in MDP-stimulated cells, cell-based, uHTS, luminescence (AID 2001); assay type: functional; conditions: Homo sapiens
[9] = tested on: HEK293; assay: cells; assay type: functional, cell-based; conditions: Homo sapiens; remark: listed apart in the source
[10] = biological target: T3, Streptokinase A (Streptococcus pyogenes serotype M1, UniProt P10520); assay: S. pyogenes streptokinase expression inhibitors, potency, dose response, plasminogen activation absorbance, OD405 (AID 1914); assay type: functional, Streptococcus pyogenes M1 GAS;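 also: secreted streptokinase activity via plasminogen activation per viability signal from cell pellet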
T3 sequence (P10520 whole entry): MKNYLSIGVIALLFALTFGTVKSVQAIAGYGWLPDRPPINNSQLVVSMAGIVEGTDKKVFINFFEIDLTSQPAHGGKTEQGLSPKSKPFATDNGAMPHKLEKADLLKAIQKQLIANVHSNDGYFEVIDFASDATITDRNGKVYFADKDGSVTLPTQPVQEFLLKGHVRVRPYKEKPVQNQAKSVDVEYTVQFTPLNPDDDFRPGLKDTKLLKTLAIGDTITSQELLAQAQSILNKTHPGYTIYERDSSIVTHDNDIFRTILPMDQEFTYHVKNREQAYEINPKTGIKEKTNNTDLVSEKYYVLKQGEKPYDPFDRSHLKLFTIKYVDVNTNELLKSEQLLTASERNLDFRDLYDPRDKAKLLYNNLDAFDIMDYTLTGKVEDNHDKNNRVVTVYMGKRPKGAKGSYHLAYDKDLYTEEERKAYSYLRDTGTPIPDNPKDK

[11] = tested on: Streptococcus sp. 'group A'; assay: growth inhibition of control SK(-) GAS strain, dose response, counter-screen for streptokinase expression inhibitor project, luminescence, kanamycin, BacTiterGlo, confirmation (AID 1900); assay type: functional, organism-based
[12] = tested on: HEK293; assay: cells; assay type: functional, cell-based; conditions: Homo sapiens; remark: listed apart in the source
[13] = tested on: HeLa; assay: HeLa cell cytotoxicity, dose response, cytotoxicity control, 24 h, cherry-picked samples (AID 504726); assay type: functional, cell-based; conditions: Homo sapiens;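 also: potency for cytotoxicity as loss of luminescence signal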
[14] = biological target: Prothrombin (Homo sapiens, UniProt P00734); assay: Thrombin 1536 HTS Dose Response Confirmation. [Related pubchem assays: 1046 (Thrombin 1536 HTS; hits were confirmed in this assay)]; assay type: functional
[15] = biological target: T4, Estrogen receptor (Homo sapiens, UniProt P03372);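 also: potency for inhibiting coactivator peptide recruitment to the receptor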
T4 sequence (P03372 whole entry): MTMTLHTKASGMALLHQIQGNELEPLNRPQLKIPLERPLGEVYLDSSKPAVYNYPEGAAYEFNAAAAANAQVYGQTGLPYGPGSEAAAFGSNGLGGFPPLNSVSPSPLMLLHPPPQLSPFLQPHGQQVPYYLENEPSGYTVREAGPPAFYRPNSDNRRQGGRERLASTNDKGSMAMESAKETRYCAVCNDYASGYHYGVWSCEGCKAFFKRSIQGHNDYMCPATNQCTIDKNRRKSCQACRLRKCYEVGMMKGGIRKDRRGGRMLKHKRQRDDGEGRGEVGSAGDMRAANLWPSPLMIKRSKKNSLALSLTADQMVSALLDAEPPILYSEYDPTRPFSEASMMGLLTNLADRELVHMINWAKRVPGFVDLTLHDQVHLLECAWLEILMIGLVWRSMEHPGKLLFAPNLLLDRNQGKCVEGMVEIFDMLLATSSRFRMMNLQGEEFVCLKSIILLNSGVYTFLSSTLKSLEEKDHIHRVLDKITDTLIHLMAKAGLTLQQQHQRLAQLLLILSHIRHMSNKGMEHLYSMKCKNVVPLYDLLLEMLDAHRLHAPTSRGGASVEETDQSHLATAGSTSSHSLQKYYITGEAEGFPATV

[16] = biological target: Estrogen receptor beta (Homo sapiens, UniProt Q92731);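 also: recombinant ER-beta bound to coactivator SRC1 peptide in presence of estradiol agonist; inhibitors block coactivator peptide binding and lower the FRET signal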
[17] = biological target: T5, fMet-Leu-Phe receptor (Homo sapiens, UniProt P21462); assay: FPR ligands, dose response (AID 519); assay type: functional
T5 sequence (P21462 whole entry): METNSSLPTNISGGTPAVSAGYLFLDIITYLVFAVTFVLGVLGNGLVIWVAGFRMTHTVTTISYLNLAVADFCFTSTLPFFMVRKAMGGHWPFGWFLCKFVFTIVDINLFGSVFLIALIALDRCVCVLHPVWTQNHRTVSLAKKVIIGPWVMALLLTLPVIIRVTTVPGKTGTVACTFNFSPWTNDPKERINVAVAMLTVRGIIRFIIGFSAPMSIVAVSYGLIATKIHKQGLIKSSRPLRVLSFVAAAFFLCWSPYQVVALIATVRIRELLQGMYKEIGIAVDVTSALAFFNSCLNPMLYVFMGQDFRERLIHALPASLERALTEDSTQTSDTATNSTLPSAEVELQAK

[18] = biological target: Peroxisome proliferator-activated receptor gamma/Nuclear receptor coactivator 2 (Homo sapiens, UniProt P37231); assay type: functional;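 also: agonist potency for raising coactivator recruitment to the receptor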
[19] = biological target: Peroxisome proliferator-activated receptor gamma/Nuclear receptor coactivator 1 (Homo sapiens, UniProt P37231); assay type: functional;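 also: agonist potency as compounds enhance coactivator SRC-1 recruitment to PPARgamma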
[20] = cytotoxicity in HMLE control line with eGFP shRNA, dose response, counter-screen for HMLE_sh_ECad selective toxicity project, cell-based, HMLE_sh_eGFP, luminescence (AID 463074); assay type: functional, Homo sapiens;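 also: HMLE human mammary epithelial cells expressing control shRNA against eGFP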
[21] = Luminescence Cell-Based Dose Retest to Confirm Inhibitors of Cancer Stem Cells. [Related pubchem assays (depositor defined):AID2717, AID2721]; assay type: functional; conditions: Homo sapiens
[22] = biological target: Peroxisome proliferator-activated receptor gamma/Nuclear receptor coactivator 3 (Homo sapiens, UniProt P37231); assay type: functional;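 also: agonist potency for raising coactivator recruitment to the receptor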
[23] = biological target: NS3 (Hepatitis C virus, UniProt A3EZJ3); assay: PubChem AID 2173; set-up: species or system Hepacivirus hominis
[24] = tested on: Vero; assay: cells; assay type: functional, cell-based; conditions: Chlorocebus sabaeus
[25] = biological target: Paired box protein Pax-8 (Homo sapiens, UniProt Q06710); assay: inhibitors of PAX8-driven TPO luciferase reporter, dose response, RMG-I cells, cherry-pick (AID 687027); assay type: functional, cell-based;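 also: luciferase reporter driven by Pax8 target thyroperoxidase promoter measured by SteadyGlo luminescence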
[26] = tested on: Vero; assay: cells; assay type: functional; conditions: Chlorocebus sabaeus
[27] = biological target: T6, Bcl-2-related protein A1 (Mus musculus, UniProt Q07440); assay type: functional;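 also: confirmatory dose–response counterscreen on Bfl-1, used to check hits from a UBC13 polyubiquitin inhibitor campaign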
T6 sequence (Q07440 whole entry): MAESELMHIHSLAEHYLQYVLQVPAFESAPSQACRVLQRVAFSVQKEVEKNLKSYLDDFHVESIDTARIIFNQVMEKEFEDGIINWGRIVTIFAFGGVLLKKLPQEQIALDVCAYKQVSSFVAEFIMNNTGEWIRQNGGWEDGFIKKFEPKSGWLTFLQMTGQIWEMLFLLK

[28] = biological target: T7, Ubiquitin-conjugating enzyme E2 N (Homo sapiens, UniProt P61088); assay type: functional;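 also: Dose-response confirmation in a TR-FRET assay detecting UBC13-driven polyubiquitin chain formation, inhibition measured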
T7 sequence (P61088 whole entry): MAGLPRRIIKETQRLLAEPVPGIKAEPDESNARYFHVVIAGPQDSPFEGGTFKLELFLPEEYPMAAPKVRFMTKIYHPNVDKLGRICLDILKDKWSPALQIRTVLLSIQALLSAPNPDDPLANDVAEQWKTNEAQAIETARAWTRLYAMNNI

Chain of Nucleotide-binding oligomerization domain-containing protein 2 (Q9HC29 whole entry, the tested form may be a part): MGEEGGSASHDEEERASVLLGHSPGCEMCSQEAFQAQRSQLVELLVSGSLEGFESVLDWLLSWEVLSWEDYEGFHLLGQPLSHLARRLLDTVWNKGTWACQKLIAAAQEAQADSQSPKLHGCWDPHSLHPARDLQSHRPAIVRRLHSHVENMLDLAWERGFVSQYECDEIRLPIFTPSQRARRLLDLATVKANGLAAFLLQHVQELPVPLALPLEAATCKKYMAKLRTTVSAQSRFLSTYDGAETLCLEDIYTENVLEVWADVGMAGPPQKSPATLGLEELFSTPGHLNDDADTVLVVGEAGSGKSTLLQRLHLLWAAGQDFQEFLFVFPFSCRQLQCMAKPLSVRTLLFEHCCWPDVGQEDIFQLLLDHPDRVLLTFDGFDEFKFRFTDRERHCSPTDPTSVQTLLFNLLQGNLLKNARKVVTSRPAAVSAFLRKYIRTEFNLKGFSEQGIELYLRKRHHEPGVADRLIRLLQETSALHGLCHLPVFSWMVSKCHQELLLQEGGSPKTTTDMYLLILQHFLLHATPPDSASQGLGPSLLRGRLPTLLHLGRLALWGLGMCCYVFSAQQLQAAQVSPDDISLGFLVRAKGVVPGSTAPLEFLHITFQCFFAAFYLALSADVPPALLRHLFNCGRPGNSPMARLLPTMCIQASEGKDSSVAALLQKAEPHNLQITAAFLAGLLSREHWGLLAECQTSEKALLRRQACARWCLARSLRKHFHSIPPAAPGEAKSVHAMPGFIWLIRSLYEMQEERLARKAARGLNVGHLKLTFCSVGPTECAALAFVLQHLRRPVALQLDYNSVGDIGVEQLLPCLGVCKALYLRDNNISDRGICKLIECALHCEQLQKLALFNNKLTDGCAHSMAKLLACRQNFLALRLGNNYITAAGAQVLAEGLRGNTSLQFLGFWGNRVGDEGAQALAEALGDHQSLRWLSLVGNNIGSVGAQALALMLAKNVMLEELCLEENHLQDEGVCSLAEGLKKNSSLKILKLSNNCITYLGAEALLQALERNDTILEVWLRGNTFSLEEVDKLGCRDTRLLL
Chain of Alkaline phosphatase, placental type (P05187 whole entry): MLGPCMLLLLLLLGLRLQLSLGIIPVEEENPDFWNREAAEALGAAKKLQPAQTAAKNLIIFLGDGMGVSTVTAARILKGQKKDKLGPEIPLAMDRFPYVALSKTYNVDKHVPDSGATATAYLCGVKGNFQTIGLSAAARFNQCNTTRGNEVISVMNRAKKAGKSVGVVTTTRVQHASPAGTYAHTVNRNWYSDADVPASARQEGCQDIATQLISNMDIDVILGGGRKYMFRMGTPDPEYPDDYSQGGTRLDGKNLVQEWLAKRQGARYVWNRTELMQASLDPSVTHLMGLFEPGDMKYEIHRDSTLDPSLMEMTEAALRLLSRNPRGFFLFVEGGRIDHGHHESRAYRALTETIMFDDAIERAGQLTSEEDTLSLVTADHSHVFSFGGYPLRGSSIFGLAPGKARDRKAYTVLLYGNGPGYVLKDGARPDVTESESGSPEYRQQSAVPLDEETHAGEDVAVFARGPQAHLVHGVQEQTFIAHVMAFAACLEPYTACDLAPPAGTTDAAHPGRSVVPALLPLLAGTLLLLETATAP
Chain of NS3 (A3EZJ3 whole entry): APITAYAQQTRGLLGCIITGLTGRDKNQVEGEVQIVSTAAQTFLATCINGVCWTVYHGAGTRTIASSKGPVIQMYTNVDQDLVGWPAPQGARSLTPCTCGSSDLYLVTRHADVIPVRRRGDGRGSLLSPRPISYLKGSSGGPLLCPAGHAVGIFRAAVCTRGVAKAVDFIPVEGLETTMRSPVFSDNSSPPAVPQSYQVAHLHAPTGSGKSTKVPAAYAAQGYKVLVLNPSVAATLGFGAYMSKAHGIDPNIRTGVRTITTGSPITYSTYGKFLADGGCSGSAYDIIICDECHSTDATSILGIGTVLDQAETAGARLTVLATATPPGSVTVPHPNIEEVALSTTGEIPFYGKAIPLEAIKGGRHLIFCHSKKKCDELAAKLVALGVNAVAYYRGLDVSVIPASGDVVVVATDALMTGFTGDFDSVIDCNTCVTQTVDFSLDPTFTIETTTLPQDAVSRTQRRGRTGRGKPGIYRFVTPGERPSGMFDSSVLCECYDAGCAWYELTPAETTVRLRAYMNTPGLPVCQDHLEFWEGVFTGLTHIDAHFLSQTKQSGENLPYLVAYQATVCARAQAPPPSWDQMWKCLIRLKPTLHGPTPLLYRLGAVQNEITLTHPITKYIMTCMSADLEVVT
Chain of Paired box protein Pax-8 (Q06710 whole entry): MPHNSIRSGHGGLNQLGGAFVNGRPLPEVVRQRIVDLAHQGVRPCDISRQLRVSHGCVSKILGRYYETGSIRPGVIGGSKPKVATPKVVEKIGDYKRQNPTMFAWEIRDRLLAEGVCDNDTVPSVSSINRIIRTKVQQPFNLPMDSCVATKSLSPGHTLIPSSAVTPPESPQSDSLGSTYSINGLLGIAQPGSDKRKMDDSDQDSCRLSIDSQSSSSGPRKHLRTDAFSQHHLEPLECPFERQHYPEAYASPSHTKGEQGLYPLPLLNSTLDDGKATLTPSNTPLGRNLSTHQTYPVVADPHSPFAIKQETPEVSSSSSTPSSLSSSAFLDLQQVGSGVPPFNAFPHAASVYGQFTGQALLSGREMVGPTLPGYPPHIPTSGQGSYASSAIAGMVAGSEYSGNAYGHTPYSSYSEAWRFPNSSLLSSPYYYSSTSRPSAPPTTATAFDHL
Chain of Peroxisome proliferator-activated receptor gamma/Nuclear receptor coactivator 1 (P37231 whole entry): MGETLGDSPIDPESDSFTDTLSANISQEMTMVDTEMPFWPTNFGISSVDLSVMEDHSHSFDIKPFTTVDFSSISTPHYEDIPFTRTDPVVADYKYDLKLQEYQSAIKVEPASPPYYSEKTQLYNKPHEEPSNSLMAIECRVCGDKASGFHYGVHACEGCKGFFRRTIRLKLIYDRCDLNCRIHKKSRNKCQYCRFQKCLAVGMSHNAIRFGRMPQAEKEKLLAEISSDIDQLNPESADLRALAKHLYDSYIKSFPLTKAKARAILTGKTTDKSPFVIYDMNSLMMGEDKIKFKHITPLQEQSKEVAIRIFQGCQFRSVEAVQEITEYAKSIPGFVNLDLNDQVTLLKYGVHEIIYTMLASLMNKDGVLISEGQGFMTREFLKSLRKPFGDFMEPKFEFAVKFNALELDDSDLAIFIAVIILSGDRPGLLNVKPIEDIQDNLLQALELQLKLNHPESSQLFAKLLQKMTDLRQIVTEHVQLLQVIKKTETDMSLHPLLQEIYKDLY
Chain of Peroxisome proliferator-activated receptor gamma/Nuclear receptor coactivator 1 (Q15788 whole entry, further chain): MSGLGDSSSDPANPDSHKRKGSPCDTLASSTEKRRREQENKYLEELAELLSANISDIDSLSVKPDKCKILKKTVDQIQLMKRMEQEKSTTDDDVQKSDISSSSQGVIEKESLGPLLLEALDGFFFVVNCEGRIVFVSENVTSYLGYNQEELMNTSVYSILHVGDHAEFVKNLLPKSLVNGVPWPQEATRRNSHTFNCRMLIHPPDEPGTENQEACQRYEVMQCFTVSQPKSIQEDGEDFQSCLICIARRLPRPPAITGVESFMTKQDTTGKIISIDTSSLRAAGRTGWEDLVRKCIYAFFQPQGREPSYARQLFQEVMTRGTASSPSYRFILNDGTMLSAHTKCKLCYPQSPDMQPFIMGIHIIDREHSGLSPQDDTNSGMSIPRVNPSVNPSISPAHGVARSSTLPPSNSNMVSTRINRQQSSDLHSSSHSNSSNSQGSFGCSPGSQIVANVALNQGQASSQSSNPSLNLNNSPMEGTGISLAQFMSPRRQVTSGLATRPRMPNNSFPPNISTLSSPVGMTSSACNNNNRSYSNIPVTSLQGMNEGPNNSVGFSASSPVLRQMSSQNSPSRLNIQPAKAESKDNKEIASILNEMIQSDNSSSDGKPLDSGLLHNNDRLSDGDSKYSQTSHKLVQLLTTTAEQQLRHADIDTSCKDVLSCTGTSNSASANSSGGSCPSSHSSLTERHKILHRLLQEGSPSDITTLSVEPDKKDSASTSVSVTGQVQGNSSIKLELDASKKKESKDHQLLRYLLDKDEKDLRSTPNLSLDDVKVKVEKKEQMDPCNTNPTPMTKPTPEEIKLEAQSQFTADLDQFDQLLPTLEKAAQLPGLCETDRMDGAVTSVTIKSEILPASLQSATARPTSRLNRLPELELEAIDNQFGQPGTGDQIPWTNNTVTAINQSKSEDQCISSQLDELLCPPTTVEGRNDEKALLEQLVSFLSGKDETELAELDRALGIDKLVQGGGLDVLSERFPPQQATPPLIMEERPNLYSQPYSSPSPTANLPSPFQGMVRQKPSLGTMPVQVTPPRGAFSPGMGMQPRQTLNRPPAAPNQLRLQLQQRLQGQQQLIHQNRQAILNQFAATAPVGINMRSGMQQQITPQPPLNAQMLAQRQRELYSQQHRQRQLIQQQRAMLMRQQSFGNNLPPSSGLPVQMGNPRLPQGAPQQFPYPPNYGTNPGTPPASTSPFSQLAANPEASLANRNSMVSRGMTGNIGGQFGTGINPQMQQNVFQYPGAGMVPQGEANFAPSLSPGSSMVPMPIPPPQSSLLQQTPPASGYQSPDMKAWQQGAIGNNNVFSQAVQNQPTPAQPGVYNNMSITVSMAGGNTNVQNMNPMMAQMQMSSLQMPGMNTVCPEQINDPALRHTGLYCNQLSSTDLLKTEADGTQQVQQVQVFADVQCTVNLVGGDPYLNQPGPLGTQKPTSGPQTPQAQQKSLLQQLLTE

Cc1cc(=O)[nH]c(-n2[nH]c(C)cc2=O)n1
IC50 [1]: > 100 µM (inactive)

COc1cc(/C=N/NC(=O)Nc2ccccc2)ccc1OCCOc1ccccc1C
Absolute IC50 (XBP1) [2]: 10 µM

Cc1ccc(-c2nnc(SCC(=O)c3ccc(O)c(O)c3)n2C)cc1
IC50 [1]: 11.7 µM (active)
IC50 [3]: > 100 µM (inactive)

CCCCc1nc(N2CCN(C(=O)c3ccco3)CC2)c(C#N)c2c1CCCC2
EC50 [4]: 14.4 µM (active)
IC50 [5]: 11.9 µM (active)
EC50 [6]: 10.1 µM (active)
EC50 [7]: 7.59 µM (active)
IC50 [8]: 12.2 µM (inactive)
IC50 [9]: > 20 µM (inactive)
EC50 [10]: 8.54 µM (active)
EC50 [11]: 7.4 µM (active)
IC50 [12]: 15.6 µM (active)

Cn1c(=O)c2c(nc(SCC(=O)NCc3ccc4c(c3)OCO4)n2Cc2ccc(Cl)cc2)n(C)c1=O
AC50 [13]: 64.6 µM (active)

Cc1nc(SCC(=O)N2CCc3ccccc3C2)c2c(C)c(C)sc2n1
EC50 [6]: 6.12 µM (active)
EC50 [7]: 9.64 µM (active)
IC50 [8]: 9.12 µM (inactive)
IC50 [9]: > 20 µM (inactive)
IC50 [14]: > 50 µM (not active)

CSCCOC(=O)c1[nH]c2c(c1C)C(=O)CC(c1ccco1)C2 (stereo not given)
IC50 [15]: > 50 µM (not active)
IC50 [16]: > 50 µM (not active)

Cc1ccc(C)c(N2CCN(C(=O)C34CC5CC(C3)CC(n3nnc(C)n3)(C5)C4)CC2)c1
IC50 [5]: 6.27 µM (active)
EC50 [6]: 7.6 µM (active)
EC50 [7]: 5.6 µM (active)
IC50 [8]: 4.61 µM (active)
IC50 [9]: > 20 µM (inactive)
IC50 [12]: 13.1 µM (active)

COc1ccc(-c2nc(-c3ccc(NC(=O)c4ccc(Br)o4)cc3)no2)cc1OC
Ki [17]: > 66.7 µM (inactive)
EC50 [18]: 49.2 µM (not active)
EC50 [19]: > 79.4 µM (not active)
AC50 [20]: 22.8 µM (active)
Absolute IC50 (XBP1) [2]: 10 µM
AC50 [21]: 2.21 µM (active)
EC50 [22]: > 79.4 µM (not active)

O=C(COc1ccccc1)Nc1ccc(Cl)c(-c2nc3ncccc3o2)c1
IC50 [15]: > 50 µM (not active)

CNc1ccc(Br)cc(C(=O)/C=C/c2cc(OC)ccc2OC)c1=O
IC50 [23]: 11.3 µM (not active)
IC50 [24]: 7.29 µM (active)
AC50 [25]: 7.83 µM (active)
CC50 [26]: 23.1 µM (active)

O=C(C1=C(O)C(=O)N(Cc2ccco2)C1c1cccc(Cl)c1)c1ccc2c(c1)OCCO2 (stereo not given)
IC50 [23]: 4.61 µM (active)

Cc1ccc(N(C(=O)c2snc(C(N)=O)c2N)C(C(=O)NCC2CCCO2)c2c[nH]c3ccccc23)cc1 (stereo not given)
IC50 [27]: > 20 µM (inactive)
IC50 [28]: 12.1 µM (active)

Cc1cc(C)nc(SCC(=O)c2ccc(Cl)cc2Cl)n1
IC50 [1]: > 100 µM (inactive)
IC50 [3]: > 100 µM (inactive)

COc1cc(NC(=O)CSc2nc3ccccc3c(=O)n2C)ccc1NC(=O)c1ccco1
IC50 [15]: 32.5 µM (not active)

— ChEMBL document CHEMBL1201862, “PubChem BioAssay data set” (2004)
